# Laboratory results from patent US9822058B2 (CHDI FOUNDATION, INC., priority 2012, dated 2017).
# Molecular target: T1, KMO mouse enzyme (Mus musculus, UniProt Q91WN4)
# T1 construct: KMO enzyme prepared at Evotec from mouse liver (4-6 weeks old) via mitochondria isolation; from tissue; host or cells: mouse liver (4-6 weeks old), isolated mitochondria, prepared at Evotec
# Assay: KMO mouse enzyme assay: L-Kynurenine hydroxylation to 3-Hydroxy-Kynurenine by LC/MS (protocols substantially similar to Example 33)
# Assay type: biochemical
# Conditions: compound at 30 µM; KMO enzyme from mouse liver mitochondria; 100 μM L-Kynurenine; 40 min at RT
# Method: A method of monitoring L-Kynurenine (KYN) hydroxylation to form 3-Hydroxy-Kynurenine (3OH-KYN) by LC/MS is described. Product is quantified by multiple reaction monitoring (MRM method). […]
# Using the assay protocols substantially similar to those of Example 33, the following compounds were tested.
# T1 sequence (Q91WN4 whole entry): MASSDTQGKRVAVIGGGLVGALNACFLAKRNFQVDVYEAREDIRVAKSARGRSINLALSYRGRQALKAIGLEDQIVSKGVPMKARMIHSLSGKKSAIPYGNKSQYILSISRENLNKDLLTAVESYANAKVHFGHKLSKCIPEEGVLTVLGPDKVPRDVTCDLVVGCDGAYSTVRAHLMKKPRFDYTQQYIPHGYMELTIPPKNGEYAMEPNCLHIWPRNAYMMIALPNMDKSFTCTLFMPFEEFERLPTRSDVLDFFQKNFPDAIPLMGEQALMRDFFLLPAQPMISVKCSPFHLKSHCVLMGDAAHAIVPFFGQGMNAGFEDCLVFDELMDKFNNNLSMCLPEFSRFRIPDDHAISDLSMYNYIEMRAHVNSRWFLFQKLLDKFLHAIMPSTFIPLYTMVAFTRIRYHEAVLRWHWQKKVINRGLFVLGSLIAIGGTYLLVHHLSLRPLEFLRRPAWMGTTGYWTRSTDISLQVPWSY
inhibition at 30 µM,% Inhibition at 30 µM,SMILES
38%,,"O=C(c1ccc(Cl)c(Cl)c1)C1CC12CCOC2=O (stereo not drawn) [1-[(3,4-dichlorophenyl)carbonyl]-5-oxaspiro[2.4]heptan-4-one]"
101%,,"CC(C)(C)c1ccc(OC(=O)[C@H]2C[C@@H]2C(=O)c2ccc(Cl)c(Cl)c2)cc1 [4-tert-Butylphenyl (1S,2S)-2-[(3,4-dichlorophenyl)carbonyl]cyclopropane-1-carboxylate]"
94%,,"O=C(NCCO)[C@H]1C[C@@H]1C(=O)c1ccc(Cl)c(Cl)c1 [(1S,2S)-2-[(3,4-dichlorophenyl)carbonyl]-N-(2-hydroxyethyl)cyclopropane-1-carboxamide]"
98%,,"CC(OC(=O)[C@H]1C[C@@H]1C(=O)c1ccc(Cl)c(Cl)c1)OC(=O)[C@H]1C[C@@H]1C(=O)c1ccc(Cl)c(Cl)c1 [1-{[(1S,2S)-2-[(3,4-dichlorophenyl)carbonyl]cyclopropyl]carbonyloxy}ethyl (1S,2S)-2-[(3,4-dichlorophenyl)carbonyl]cyclopropane-1-carboxylate]"
,100%,"Cc1ccc(C(=O)[C@H]2C[C@@H]2C(=O)[O-])cc1Cl.[Na+] [Sodium (1S,2S)-2-[(3-chloro-4-methylphenyl)carbonyl]cyclopropane-1-carboxylate]"
,98%,"N[C@@H](CCCCNC(=O)[C@H]1C[C@@H]1C(=O)c1ccc(Cl)c(Cl)c1)C(=O)O [(2S)-2-Amino-6-{[(1S,2S)-2-[(3,4-dichlorophenyl)carbonyl]cyclopropyl]formamide}hexanoic acid]"
15.4%,,"CC1(C)[C@@H](C(=O)O)[C@@H]1C(=O)c1ccc(Cl)c(Cl)c1 [(1S,3S)-3-(3,4-dichlorobenzoyl)-2,2-dimethylcyclopropane-1-carboxylic acid]"
96.7%,,"C[C@@H]1[C@@H](C(=O)O)[C@@H]1C(=O)c1ccc(Cl)c(Cl)c1 (single isomer, unassigned)"
102%,,"CCN(CC)CCOC(=O)[C@H]1C[C@@H]1C(=O)c1ccc(Cl)c(Cl)c1 [2-(Diethylamino)ethyl (1S,2S)-2-[(3,4-dichlorophenyl)carbonyl]cyclopropane-1-carboxylate]"
68%,,O=C(c1ccc(F)c(Cl)c1)C1C[C@@H]1C(=O)O (stereo partly drawn) [(1S)-2-[(3-Chloro-4-fluorophenyl)carbonyl]cyclopropane-1-carboxylic acid]
103%,,"CC(C)OC(=O)OC(C)OC(=O)[C@H]1C[C@@H]1C(=O)c1ccc(Cl)c(Cl)c1 (stereo partly drawn) [1-{[(Propan-2-yloxy)carbonyl]oxy}ethyl (1S,2S)-2-[(3,4-dichlorophenyl)carbonyl]cyclopropane-1-carboxylate]"
101%,,"CC(C)OC(=O)[C@H]1C[C@@H]1C(=O)c1ccc(Cl)c(Cl)c1 [Propan-2-yl (1S,2S)-2-[(3,4-dichlorophenyl)carbonyl]cyclopropane-1-carboxylate]"
103%,,"O=C(O)[C@H]1C[C@@H]1C(=O)c1cc(Cl)cc(Cl)c1 [(1S,2S)-2-[(3,5-Dichlorophenyl)carbonyl]cyclopropane-1-carboxylic acid]"
86%,,"O=C(Nc1ccccc1)[C@H]1C[C@@H]1C(=O)c1ccc(Cl)c(Cl)c1 [(1S,2S)-2-[(3,4-Dichlorophenyl)carbonyl]-N-phenylcyclopropane-1-carboxamide]"
101%,,"O=C(c1ccc(Cl)c(Cl)c1)[C@H]1C[C@@H]1c1noc(=O)[nH]1 [3-[(1S,2S)-2-[(3,4-Dichlorophenyl)carbonyl]cyclopropyl]-4,5-dihydro-1,2,4-oxadiazol-5-one]"
,102%,"O=C([O-])[C@H]1C[C@@H]1C(=O)c1ccc(C(F)(F)F)c(Cl)c1.[Na+] [Sodium (1S,2S)-2-{[3-chloro-4-(trifluoromethyl)phenyl]carbonyl}cyclopropane-1-carboxylate]"
33%,,"O=C1CN(C(=O)[C@H]2C[C@@H]2C(=O)c2ccc(Cl)c(Cl)c2)CCN1 [4-{[(1S,2S)-2-[(3,4-Dichlorophenyl)carbonyl]cyclopropyl]carbonyl}piperazin-2-one]"
105%,,"O=C(O)[C@H]1C[C@@H]1C(=O)c1cccc(Cl)c1 [(1S,2S)-2-[(3-Chlorophenyl)carbonyl]cyclopropane-1-carboxylic acid]"
103%,,"O=C(O)[C@H]1C[C@@H]1C(=O)c1ccc(Cl)c(F)c1 [(1S,2S)-2-[(4-Chloro-3-fluorophenyl)carbonyl]cyclopropane-1-carboxylic acid]"
103%,,"CC(=O)OC(C)OC(=O)[C@H]1C[C@@H]1C(=O)c1ccc(Cl)c(Cl)c1 (stereo partly drawn) [1-{[(1S,2S)-2-[(3,4-Dichlorophenyl)carbonyl]cyclopropyl]carbonyloxy}ethyl acetate]"
102%,,"O=C(O)[C@H]1C[C@@H]1C(=O)c1ccc(C(F)(F)F)c(Cl)c1 [(1S,2S)-2-{[3-Chloro-4-(trifluoromethyl)phenyl]carbonyl}cyclopropane-1-carboxylic acid]"
42%,,"NC(=O)[C@H]1C[C@@H]1C(=O)c1ccc(OC2CC2)c(Cl)c1 [(1S,2S)-2-[(3-chloro-4-cyclopropoxyphenyl)carbonyl]cyclopropane-1-carboxamide]"

inhibition at 30 µM,% Inhibition at 30 µM,SMILES
52.5%,,"C[C@@H]1[C@H](C(=O)O)[C@H]1C(=O)c1ccc(Cl)c(Cl)c1 (single isomer, unassigned)"
101%,,"CCCCOC(=O)[C@H]1C[C@@H]1C(=O)c1ccc(Cl)c(Cl)c1 [Butyl (1S,2S)-2-[(3,4-Dichlorophenyl)carbonyl]cyclopropane-1-carboxylate]"
101%,,"CC(C)COC(=O)[C@H]1C[C@@H]1C(=O)c1ccc(Cl)c(Cl)c1 [2-Methylpropyl (1S,2S)-2-[(3,4-dichlorophenyl)carbonyl]cyclopropane-1-carboxylate]"
68%,,"N#C[C@H]1C[C@@H]1C(=O)c1ccc(Cl)c(Cl)c1 [(1S,2S)-2-[(3,4-Dichlorophenyl)carbonyl]cyclopropane-1-carbonitrile]"
101%,,"O=C(O)[C@H]1C[C@@H]1C(=O)c1ccc(OC2CC2)c(Cl)c1 [(1S,2S)-2-[(3-Chloro-4-cyclopropoxyphenyl)carbonyl]cyclopropane-1-carboxylic acid]"
101%,,"O=C(c1ccc(Cl)c(Cl)c1)[C@H]1C[C@@H]1c1nnn[nH]1 [5-[(1S,2S)-2-[(3,4-Dichlorophenyl)carbonyl]cyclopropyl]-1H-1,2,3,4-tetrazole]"
98.6%,,"C[C@]1(C(=O)O)C[C@@H]1C(=O)c1ccc(Cl)c(Cl)c1 [(1S,2S)-2-(3,4-dichlorobenzoyl)-1-methylcyclopropane-1-carboxylic acid]"
100%,,"Cc1ccc(C(=O)[C@H]2C[C@@H]2C(=O)O)cc1Cl [(1S,2S)-2-[(3-Chloro-4-methylphenyl)carbonyl]cyclopropane-1-carboxylic acid]"
102%,,"O=C(OCCO)[C@H]1C[C@@H]1C(=O)c1ccc(Cl)c(Cl)c1 [2-Hydroxyethyl (1S,2S)-2-[(3,4-dichlorophenyl)carbonyl]cyclopropane-1-carboxylate]"
102%,,"CCOC(=O)OC(C)OC(=O)[C@H]1C[C@@H]1C(=O)c1ccc(Cl)c(Cl)c1 (stereo partly drawn) [1-[(Ethoxycarbonyl)oxy]ethyl (1S,2S)-2-[(3,4-dichlorophenyl)carbonyl]cyclopropane-1-carboxylate]"
101%,,"C[C@H]1[C@@H](C(=O)O)[C@@H]1C(=O)c1ccc(Cl)c(Cl)c1 (single isomer, unassigned)"
104%,,"COC(=O)[C@H]1C[C@@H]1C(=O)c1cc(Cl)cc(Cl)c1 [Methyl (1S,2S)-2-[(3,5-dichlorophenyl)carbonyl]cyclopropane-1-carboxylate]"
101%,,"C[C@H]1[C@H](C(=O)O)[C@H]1C(=O)c1ccc(Cl)c(Cl)c1 (single isomer, unassigned)"
98%,,"CC(C)Oc1ccc(C(=O)[C@H]2C[C@@H]2C(=O)O)cc1Cl [(1S,2S)-2-{[3-Chloro-4-(propan-2-yloxy)phenyl]carbonyl}cyclopropane-1-carboxylic acid]"
102%,,"O=C(O)[C@H]1C[C@@H]1C(=O)c1ccc(F)c(Cl)c1 [Sodium (1S,2S)-2-[(3-chloro-4-fluorophenyl)carbonyl]cyclopropane-1-carboxylate]"
54%,,"CC1(C)[C@H](C(=O)O)[C@H]1C(=O)c1ccc(Cl)c(Cl)c1 [(1R,3R)-3-(3,4-dichlorobenzoyl)-2,2-dimethylcyclopropane-1-carboxylic acid]"
106%,,"O=C(O)[C@H]1C[C@@H]1C(=O)c1ccc(Cl)c(Cl)c1 [(1S,2S)-2-[(3,4-Dichlorophenyl)carbonyl]cyclopropane-1-carboxylic acid]"
102%,,"CC(C)(C)C(=O)OCOC(=O)[C@H]1C[C@@H]1C(=O)c1ccc(Cl)c(Cl)c1 [{[(1S,2S)-2-[(3,4-dichlorophenyl)carbonyl]cyclopropyl]carbonyloxy}methyl 2,2-dimethylpropanoate]"
88%,,"O=C(O)[C@H]1C[C@@H]1C(=O)c1ccc(F)c(F)c1 [(1S,2S)-2-[(3,4-Difluorophenyl)carbonyl]cyclopropane-1-carboxylic acid]"
101%,,"O=C(c1ccc(F)c(Cl)c1)[C@H]1C[C@@H]1c1noc(=O)[nH]1 [3-[(1S,2S)-2-[(3-Chloro-4-fluorophenyl)carbonyl]cyclopropyl]-4,5-dihydro-1,2,4-oxadiazol-5-one]"
,99%,"C[N+](C)(C)CC(CC(=O)O)OC(=O)[C@H]1C[C@@H]1C(=O)c1ccc(Cl)c(Cl)c1 (stereo partly drawn) [(3-Carboxy-2-{[(1S,2S)-2-[(3,4-dichlorophenyl)carbonyl]cyclopropyl]carbonyloxy}propyl)trimethylazanium]"

SMILES,inhibition at 30 µM,% Inhibition at 30 µM
"O=C(O)[C@H]1N[C@@H]1C(=O)c1ccc(Cl)c(Cl)c1 [(2S,3S)-3-[(3,4-Dichlorophenyl)carbonyl]aziridine-2-carboxylic acid]",101%,

# Same assay, conditions: compound at 30 µM; KMO enzyme from mouse liver mitochondria; 100 μM L-Kynurenine; 40 min at RT; listed as 1S,2S)-2-(3-chloro-4-cyclopropoxybenzoyl)cyclopropane-1-carboxylic acid
row,% Inhibition at 30 µM,SMILES
1,100.5%,"O=C(O)[C@H]1C[C@@H]1C(=O)c1ccc(OC2CC2)c(Cl)c1 [(1S,2S)-2-[(3-Chloro-4-cyclopropoxyphenyl)carbonyl]cyclopropane-1-carboxylic acid]"
